In ChEMBL document CHEMBL1154382, “Preliminary SAR analysis of novel antiproliferative N(6),5'-bis-ureidoadenosine derivatives” (2009):

What was measured:
Type in all cases: functional
Settings in all cases: values are per cent of control
CCRF-CEM = assay: Antiproliferative activity against human CCRF-CEM cells at 10 uM assessed as cell growth inhibition relative to control
HL-60(TB) = assay: Antiproliferative activity against human HL-60(TB) cells at 10 uM assessed as cell growth inhibition relative to control
K562 = assay: Antiproliferative activity against human K562 cells at 10 uM assessed as cell growth inhibition relative to control
MOLT-4 = assay: Antiproliferative activity against human MOLT4 cells at 10 uM assessed as cell growth inhibition relative to control
[1] = Antiproliferative activity against human […] cells at 10 uM assessed as cell growth inhibition relative to control
A549 = assay: Antiproliferative activity against human A549 cells at 10 uM assessed as cell growth inhibition relative to control
EKVX = assay: Antiproliferative activity against human EKVX cells at 10 uM assessed as cell growth inhibition relative to control
PC-3 = assay: Antiproliferative activity against human PC3 cells at 10 uM assessed as cell growth inhibition relative to control
HOP-62 = assay: Antiproliferative activity against human HOP62 cells at 10 uM assessed as cell growth inhibition relative to control
HOP-92 = assay: Antiproliferative activity against human HOP92 cells at 10 uM assessed as cell growth inhibition relative to control
NCI-H226 = assay: Antiproliferative activity against human NCI-H226 cells at 10 uM assessed as cell growth inhibition relative to control
NCI-H23 = assay: Antiproliferative activity against human NCI-H23 cells at 10 uM assessed as cell growth inhibition relative to control
NCI-H322M = assay: Antiproliferative activity against human NCI-H322M cells at 10 uM assessed as cell growth inhibition relative to control
NCI-H460 = assay: Antiproliferative activity against human NCI-H460 cells at 10 uM assessed as cell growth inhibition relative to control
NCI-H522 = assay: Antiproliferative activity against human NCI-H522 cells at 10 uM assessed as cell growth inhibition relative to control
COLO 205 = assay: Antiproliferative activity against human COLO205 cells at 10 uM assessed as cell growth inhibition relative to control
HCC 2998 = assay: Antiproliferative activity against human HCC2998 cells at 10 uM assessed as cell growth inhibition relative to control
HCT-116 = assay: Antiproliferative activity against human HCT116 cells at 10 uM assessed as cell growth inhibition relative to control
HCT-15 = assay: Antiproliferative activity against human HCT15 cells at 10 uM assessed as cell growth inhibition relative to control
HT-29 = assay: Antiproliferative activity against human HT-29 cells at 10 uM assessed as cell growth inhibition relative to control
KM12 = assay: Antiproliferative activity against human KM12 cells at 10 uM assessed as cell growth inhibition relative to control
SW-620 = assay: Antiproliferative activity against human SW620 cells at 10 uM assessed as cell growth inhibition relative to control
LOX IMVI = assay: Antiproliferative activity against human LOXIMVI cells at 10 uM assessed as cell growth inhibition relative to control
Malme-3M = assay: Antiproliferative activity against human MALME-3M cells at 10 uM assessed as cell growth inhibition relative to control
M14 = assay: Antiproliferative activity against human M14 cells at 10 uM assessed as cell growth inhibition relative to control
SK-MEL-2 = assay: Antiproliferative activity against human SK-MEL-2 cells at 10 uM assessed as cell growth inhibition relative to control
SK-MEL-28 = assay: Antiproliferative activity against human SK-MEL-28 cells at 10 uM assessed as cell growth inhibition relative to control
SK-MEL-5 = assay: Antiproliferative activity against human SK-MEL-5 cells at 10 uM assessed as cell growth inhibition relative to control
UACC-257 = assay: Antiproliferative activity against human UACC257 cells at 10 uM assessed as cell growth inhibition relative to control
UACC-62 = assay: Antiproliferative activity against human UACC62 cells at 10 uM assessed as cell growth inhibition relative to control
SF-268 = assay: Antiproliferative activity against human SF268 cells at 10 uM assessed as cell growth inhibition relative to control
SF-295 = assay: Antiproliferative activity against human SF295 cells at 10 uM assessed as cell growth inhibition relative to control
SF-539 = assay: Antiproliferative activity against human SF539 cells at 10 uM assessed as cell growth inhibition relative to control
SNB-19 = assay: Antiproliferative activity against human SNB19 cells at 10 uM assessed as cell growth inhibition relative to control
SNB-75 = assay: Antiproliferative activity against human SNB75 cells at 10 uM assessed as cell growth inhibition relative to control
U-251 = assay: Antiproliferative activity against human U251 cells at 10 uM assessed as cell growth inhibition relative to control
IGROV-1 = assay: Antiproliferative activity against human IGROV1 cells at 10 uM assessed as cell growth inhibition relative to control
OVCAR-3 = assay: Antiproliferative activity against human OVCAR-3 cells at 10 uM assessed as cell growth inhibition relative to control
OVCAR-4 = assay: Antiproliferative activity against human OVCAR4 cells at 10 uM assessed as cell growth inhibition relative to control
OVCAR-5 = assay: Antiproliferative activity against human OVCAR5 cells at 10 uM assessed as cell growth inhibition relative to control
OVCAR-8 = assay: Antiproliferative activity against human OVCAR8 cells at 10 uM assessed as cell growth inhibition relative to control
SK-OV-3 = assay: Antiproliferative activity against human SKOV3 cells at 10 uM assessed as cell growth inhibition relative to control
786-0 = assay: Antiproliferative activity against human 786-0 cells at 10 uM assessed as cell growth inhibition relative to control
A498 = assay: Antiproliferative activity against human A498 cells at 10 uM assessed as cell growth inhibition relative to control
ACHN = assay: Antiproliferative activity against human ACHN cells at 10 uM assessed as cell growth inhibition relative to control
CAKI-1 = assay: Antiproliferative activity against human Caki1 cells at 10 uM assessed as cell growth inhibition relative to control
RXF 393 = assay: Antiproliferative activity against human RXF393 cells at 10 uM assessed as cell growth inhibition relative to control
SN12C = assay: Antiproliferative activity against human SN12C cells at 10 uM assessed as cell growth inhibition relative to control
TK-10 = assay: Antiproliferative activity against human TK10 cells at 10 uM assessed as cell growth inhibition relative to control
UO-31 = assay: Antiproliferative activity against human UO31 cells at 10 uM assessed as cell growth inhibition relative to control
BT-549 = assay: Antiproliferative activity against human BT549 cells at 10 uM assessed as cell growth inhibition relative to control
[2] = Antiproliferative activity against human Hs 578T cells at 10 uM assessed as cell growth inhibition relative to control
MCF7 = assay: Antiproliferative activity against human MCF7 cells at 10 uM assessed as cell growth inhibition relative to control
MDA-MB-231 = assay: Antiproliferative activity against human MDA-MB-231 cells at 10 uM assessed as cell growth inhibition relative to control
MDA-MB-468 = assay: Antiproliferative activity against human MDA-MB-468 cells at 10 uM assessed as cell growth inhibition relative to control
T47D = assay: Antiproliferative activity against human T47D cells at 10 uM assessed as cell growth inhibition relative to control
DU-145 = assay: Antiproliferative activity against human DU145 cells at 10 uM assessed as cell growth inhibition relative to control

For CCOC(=O)C[C@H]1[C@@H](O[Si](C)(C)C(C)(C)C)[C@H](n2cnc3c(N)ncnc32)O[C@@H]1COC(=O)NC, the growth, % of control at 10 µM (CCRF-CEM) was 98%, the growth, % of control at 10 µM (HL-60(TB)) was 80% and the growth, % of control at 10 µM (K562) was 86%. For the same compound, the growth, % of control at 10 µM (MOLT-4) was 55%, the growth, % of control at 10 µM [1] was 79% and the growth, % of control at 10 µM (A549) was 92%. The growth, % of control at 10 µM (EKVX) was 83%, the growth, % of control at 10 µM (PC-3) was 84% and the growth, % of control at 10 µM (HOP-62) was 74%. For the same compound, the growth, % of control at 10 µM (HOP-92) was 95%, the growth, % of control at 10 µM (NCI-H226) was 79% and the growth, % of control at 10 µM (NCI-H23) was 105%. It also gave a growth, % of control at 10 µM (NCI-H322M) of 99%, a growth, % of control at 10 µM (NCI-H460) of 106% and a growth, % of control at 10 µM (NCI-H522) of 75%. For the same compound, the growth, % of control at 10 µM (COLO 205) was 104%, the growth, % of control at 10 µM (HCC 2998) was 55% and the growth, % of control at 10 µM (HCT-116) was 81%. The growth, % of control at 10 µM (HCT-15) was 87%, the growth, % of control at 10 µM (HT-29) was 100% and the growth, % of control at 10 µM (KM12) was 102%. It also gave a growth, % of control at 10 µM (SW-620) of 104%, a growth, % of control at 10 µM (LOX IMVI) of 88% and a growth, % of control at 10 µM (Malme-3M) of 96%. It also gave a growth, % of control at 10 µM (M14) of 100%, a growth, % of control at 10 µM (SK-MEL-2) of 111% and a growth, % of control at 10 µM (SK-MEL-28) of 106%. It also gave a growth, % of control at 10 µM (SK-MEL-5) of 68%, a growth, % of control at 10 µM (UACC-257) of 94% and a growth, % of control at 10 µM (UACC-62) of 77%. For the same compound, the growth, % of control at 10 µM (SF-268) was 97%, the growth, % of control at 10 µM (SF-295) was 92% and the growth, % of control at 10 µM (SF-539) was 89%. For the same compound, the growth, % of control at 10 µM (SNB-19) was 92%, the growth, % of control at 10 µM (SNB-75) was 83% and the growth, % of control at 10 µM (U-251) was 86%. For the same compound, the growth, % of control at 10 µM (IGROV-1) was 118%, the growth, % of control at 10 µM (OVCAR-3) was 98% and the growth, % of control at 10 µM (OVCAR-4) was 78%. It also gave a growth, % of control at 10 µM (OVCAR-5) of 115%, a growth, % of control at 10 µM (OVCAR-8) of 98% and a growth, % of control at 10 µM (SK-OV-3) of 94%. It also gave a growth, % of control at 10 µM (786-0) of 87%, a growth, % of control at 10 µM (A498) of 98% and a growth, % of control at 10 µM (ACHN) of 89%. It also gave a growth, % of control at 10 µM (CAKI-1) of 79%, a growth, % of control at 10 µM (RXF 393) of 78% and a growth, % of control at 10 µM (SN12C) of 96%. It also gave a growth, % of control at 10 µM (TK-10) of 110%, a growth, % of control at 10 µM (UO-31) of 95% and a growth, % of control at 10 µM (BT-549) of 74%. For the same compound, the growth, % of control at 10 µM [2] was 93%, the growth, % of control at 10 µM (MCF7) was 98% and the growth, % of control at 10 µM (MDA-MB-231) was 85%. It also gave a growth, % of control at 10 µM (MDA-MB-468) of 77%, a growth, % of control at 10 µM (T47D) of 84% and a growth, % of control at 10 µM (DU-145) of 100%.
